{"source": "patent US8486462B2", "about": "“Glycoside having 4-methylergost-7-en-3-ol skeleton and hyperglycemia improving agent” (Morinaga Milk Industry Co., Ltd., priority 2004, dated 2013)", "key": {"[1]": {"test_system": "db/db mice", "conditions": "for Hemoglobin A1c relative levels (%) 35th day from the administration: db/db mice, negative sample = 100", "method": "As type-II diabetes model mice, 6-week old male db/db mice (purchased from Clea Japan, Inc.) were used. These mice were divided into groups, each consisting of 7 animals. The test sample was dissolved in DMSO, and the concentration of 3-O-β-D-glucopyranosyl-4-methylergost-7-en-3-ol was adjusted to 1, 5 and 15 μg/mL with physiological saline. The final DMSO concentration was adjusted to 0.2%. The type-II diabetes model mice were orally administered with 1 mL of the test sample solution once day everyday with a sonde. […] On the 35th day from the start of the administration, hemoglobin A1c levels were measured by using DCA 2000 (Bayer-Sankyo Co., Ltd.)."}, "[2]": {"test_system": "db/db mice", "experiment": "Test Example 1: hyperglycemia improving effect, random and fasting blood glucose levels in type-II diabetes model mice", "format": "in vivo", "conditions": "oral 1 mL of 15 μg/mL once a day, vs negative sample", "procedure": "The final DMSO concentration was adjusted to 0.2%. The type-II diabetes model mice were orally administered 1 mL of the test sample solution once a day everyday with a sonde. […] Fasting blood glucose levels and random blood glucose levels were measured over time using Antisense II (Bayer-Sankyo Co., Ltd.). The fasting blood glucose levels were measured after 15 hours of fasting."}}, "note": "Where two headings read alike, the source gives them in different places.", "data": [{"smiles": "CC1C(O[C@@H]2O[C@H](CO)[C@@H](O)[C@H](O)[C@H]2O)CC[C@@]2(C)C1CC=C1[C@@H]3CC[C@H]([C@H](C)CC[C@H](C)C(C)C)[C@@]3(C)CC[C@@H]12", "note": "(stereo partly drawn) [compound 1, 3-O-β-D-glucopyranosyl-4-methylergost-7-en-3-ol]", "values": [{"measurement": "Hemoglobin A1c relative levels (%) 35th day from the administration", "setting": "[1]; 1 μg oral once a day", "value": "98.6 ± 7.3", "unit": "%"}, {"measurement": "Hemoglobin A1c relative levels (%) 35th day from the administration", "setting": "[1]; 5 μg oral once a day", "value": "89.6 ± 7.9", "unit": "%"}, {"measurement": "Hemoglobin A1c relative levels (%) 35th day from the administration", "setting": "[1]; 15 μg oral once a day", "value": "73.5 ± 8.6", "unit": "%"}, {"measurement": "hemoglobin A1c levels in comparison with negative sample", "setting": "[1]; repetitive administration of 5 or 15 μg, 35th day", "value": "statistically significant decreases"}, {"measurement": "fasting blood glucose levels, changes over time", "setting": "[2]; after 15 hours of fasting", "value": "effect of suppressing the increases in blood glucose levels was clearly observed"}, {"measurement": "random blood glucose levels, changes over time", "setting": "[2]", "value": "effect of suppressing the increases in blood glucose levels was clearly observed"}]}]}
